Measured values: ChEMBL document CHEMBL5620406, “Synthesis and biological evaluation of novel pyrazole amides as potent mitochondrial complex I inhibitors” (Eur J Med Chem, 2023)
pIC50: −log10 of the molar value. Active and inactive are the calls of the source.

Assays:
[1] = Acute toxicity in BALB/c mouse assessed as lung damage at 40 to 68 mg/kg, ip measured on day 14 by H and E staining based analysis; type: organism-based; conditions: in vivo, 336 h, dose 40-68 mg/kg, time 14 day
[2] = Acute toxicity in BALB/c mouse assessed as effect on ALT level at 68 mg/kg, ip measured on day 14; type: organism-based; conditions: in vivo, 336 h, time 14 day
[3] = tested on: HCT-116; assay: Induction of mitochondrial dysfunction in human HCT-116 cells assessed as attenuation of oxygen consumption rate at 2 nM incubated for 24 hrs by Seahorse XFe24 analyzer; type: functional, cell-based
[4] = tested on: KG-1; assay: Antiproliferative activity against human KG-1 cells assessed as inhibition of cell growth incubated for 96 hrs by MTT assay; type: functional, cell-based; conditions: KG-1, 96 h
[5] = molecular target: Cytochrome P450 3A4 (Homo sapiens, UniProt P08684); assay: Inhibition of CYP3A4 in human liver microsomes incubated for 5 mins in presence of NADPH by LC/MS/MS analysis; type: ADME, Microsome
Cytochrome P450 3A4, sequence (P08684 whole entry): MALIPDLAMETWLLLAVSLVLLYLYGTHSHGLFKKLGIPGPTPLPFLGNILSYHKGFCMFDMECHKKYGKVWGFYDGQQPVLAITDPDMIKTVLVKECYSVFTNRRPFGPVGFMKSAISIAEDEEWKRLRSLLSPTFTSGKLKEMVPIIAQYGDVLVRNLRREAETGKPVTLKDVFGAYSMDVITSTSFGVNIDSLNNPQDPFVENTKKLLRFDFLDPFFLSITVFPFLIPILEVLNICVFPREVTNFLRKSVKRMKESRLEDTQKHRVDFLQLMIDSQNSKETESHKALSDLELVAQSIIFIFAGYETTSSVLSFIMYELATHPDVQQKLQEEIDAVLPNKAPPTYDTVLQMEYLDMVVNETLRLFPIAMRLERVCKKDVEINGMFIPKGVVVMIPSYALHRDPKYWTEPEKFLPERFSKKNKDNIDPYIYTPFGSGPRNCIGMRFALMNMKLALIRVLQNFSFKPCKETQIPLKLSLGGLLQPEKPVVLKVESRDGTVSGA

[6] = molecular target: Cytochrome P450 2C9 (Homo sapiens, UniProt P11712); assay: Inhibition of CYP2C9 in human liver microsomes incubated for 10 mins in presence of NADPH by LC/MS/MS analysis; type: ADME, Microsome
Cytochrome P450 2C9, sequence (P11712 whole entry): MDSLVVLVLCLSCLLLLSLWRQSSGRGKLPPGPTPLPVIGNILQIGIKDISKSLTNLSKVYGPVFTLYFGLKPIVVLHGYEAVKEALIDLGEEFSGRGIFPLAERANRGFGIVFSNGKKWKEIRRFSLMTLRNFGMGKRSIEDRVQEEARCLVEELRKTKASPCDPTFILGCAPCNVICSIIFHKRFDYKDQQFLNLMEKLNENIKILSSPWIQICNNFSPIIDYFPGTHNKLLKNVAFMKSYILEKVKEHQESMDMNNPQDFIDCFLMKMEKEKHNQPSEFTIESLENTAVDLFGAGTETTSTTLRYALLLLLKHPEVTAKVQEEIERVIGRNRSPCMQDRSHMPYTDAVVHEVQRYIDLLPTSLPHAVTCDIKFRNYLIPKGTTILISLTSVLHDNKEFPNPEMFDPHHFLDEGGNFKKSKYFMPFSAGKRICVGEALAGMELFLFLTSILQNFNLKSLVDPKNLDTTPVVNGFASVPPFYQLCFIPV

[7] = Acute toxicity in BALB/c mouse assessed as decrease in behavioral activity at 68 mg/kg, ip measured for 6 days; type: organism-based; conditions: in vivo, 144 h, time 6 day
[8] = Acute toxicity in BALB/c mouse assessed as liver damage at 40 to 68 mg/kg, ip measured on day 14 by H and E staining based analysis; type: organism-based; conditions: in vivo, 336 h, dose 40-68 mg/kg, time 14 day
[9] = Toxicity in NOD-SCID mouse xenografted with human KG-1 cells assessed as effect on neutrophil count at 5 mg/kg, ip qd administered 5 consecutive days per week for 24 days; type: organism-based; conditions: in vivo, 576 h, time 24 day
[10] = Acute toxicity in BALB/c mouse assessed as effect on AST level at 68 mg/kg, ip measured on day 14; type: organism-based; conditions: in vivo, 336 h, time 14 day
[11] = Toxicity in NOD-SCID mouse xenografted with human KG-1 cells assessed as effect on GLB level at 5 mg/kg, ip qd administered 5 consecutive days per week for 24 days; type: organism-based; conditions: in vivo, 576 h, time 24 day
[12] = Apparent permeability across apical to basolateral side in human Caco-2 cells incubated for 120 mins by LC-MS/MS analysis; type: ADME, cell-based
[13] = Toxicity in NOD-SCID mouse xenografted with human KG-1 cells assessed as effect on MCV level at 5 mg/kg, ip qd administered 5 consecutive days per week for 24 days; type: organism-based; conditions: in vivo, 576 h, time 24 day
[14] = Toxicity in NOD-SCID mouse xenografted with human KG-1 cells assessed as effect on HGB count at 5 mg/kg, ip qd administered 5 consecutive days per week for 24 days; type: organism-based; conditions: in vivo, 576 h, time 24 day
[15] = Acute toxicity in BALB/c mouse assessed as decrease in body weight at 40 mg/kg, ip measured for 24 hrs; type: organism-based; conditions: in vivo
[16] = Acute toxicity in BALB/c mouse assessed as effect on BUN level at 68 mg/kg, ip measured on day 14; type: organism-based; conditions: in vivo, 336 h, time 14 day
[17] = Acute toxicity in BALB/c mouse assessed as effect on ALP level at 68 mg/kg, ip measured on day 14; type: organism-based; conditions: in vivo, 336 h, time 14 day
[18] = Acute toxicity in BALB/c mouse assessed as effect on TP level at 68 mg/kg, ip measured on day 14; type: organism-based; conditions: in vivo, 336 h, time 14 day
[19] = Toxicity in NOD-SCID mouse xenografted with human KG-1 cells assessed as effect on CHO2 level at 5 mg/kg, ip qd administered 5 consecutive days per week for 24 days; type: organism-based; conditions: in vivo, 576 h, time 24 day
[20] = tested on: HCT-116; assay: Induction of mitochondrial dysfunction in human HCT-116 cells assessed as attenuation of basal oxygen consumption incubated for 24 hrs by Seahorse XFe24 analyzer; type: functional, cell-based; conditions: dose 2-10 nM
[21] = tested on: NCM460; assay: Antiproliferative activity against human NCM460 cells assessed as inhibition of cell growth incubated for 96 hrs by MTT assay; type: functional, cell-based; conditions: NCM460, 96 h
[22] = Toxicity in NOD-SCID mouse xenografted with human KG-1 cells assessed as effect on MCHC level at 5 mg/kg, ip qd administered 5 consecutive days per week for 24 days; type: organism-based; conditions: in vivo, 576 h, time 24 day
[23] = tested on: KG-1; assay: Induction of ROS generation in human KG-1 cells measured for 30 mins by DCFDA-staining based flow cytometry analysis; type: functional, cell-based; conditions: dose <= 0.5 nM
[24] = Toxicity in NOD-SCID mouse xenografted with human KG-1 cells assessed as effect on ALT level at 5 mg/kg, ip qd administered 5 consecutive days per week for 24 days; type: organism-based; conditions: in vivo, 576 h, time 24 day
[25] = species: Homo sapiens; assay: Inhibition of mitochondrial complex I (unknown origin) at 1 uM incubated for 15 mins by microplate reader analysis relative to control
[26] = Toxicity in NOD-SCID mouse xenografted with human KG-1 cells assessed as effect on UREA level at 5 mg/kg, ip qd administered 5 consecutive days per week for 24 days; type: organism-based; conditions: in vivo, 576 h, time 24 day
[27] = Toxicity in NOD-SCID mouse xenografted with human KG-1 cells assessed as effect on RBC count at 5 mg/kg, ip qd administered 5 consecutive days per week for 24 days; type: organism-based, Erythrocyte; conditions: in vivo, 576 h, time 24 day
[28] = Acute toxicity in BALB/c mouse assessed as effect on PLT level at 68 mg/kg, ip measured on day 14; type: organism-based; conditions: in vivo, 336 h, time 14 day
[29] = Toxicity in NOD-SCID mouse xenografted with human KG-1 cells assessed as effect on AST level at 5 mg/kg, ip qd administered 5 consecutive days per week for 24 days; type: organism-based; conditions: in vivo, 576 h, time 24 day
[30] = Toxicity in NOD-SCID mouse xenografted with human KG-1 cells assessed as effect on TRIGL level at 5 mg/kg, ip qd administered 5 consecutive days per week for 24 days; type: organism-based; conditions: in vivo, 576 h, time 24 day
[31] = tested on: KG-1; assay: Antiproliferative activity against human KG-1 cells assessed as inhibition of cell growth at 0.1 nM incubated for 96 hrs in presence of galactose by MTT assay; type: functional, cell-based
[32] = Toxicity in NOD-SCID mouse xenografted with human KG-1 cells assessed as effect on MPV at 5 mg/kg, ip qd administered 5 consecutive days per week for 24 days; type: organism-based; conditions: in vivo, 576 h, time 24 day
[33] = Toxicity in NOD-SCID mouse xenografted with human KG-1 cells assessed as effect on GLU level at 5 mg/kg, ip qd administered 5 consecutive days per week for 24 days; type: organism-based; conditions: in vivo, 576 h, time 24 day
[34] = Acute toxicity in BALB/c mouse assessed as animal death at 116 mg/kg, ip measured on day 14; type: organism-based; conditions: in vivo, time 14 day, read-out: Activity
[35] = molecular target: Cytochrome P450 2D6 (Homo sapiens, UniProt P10635); assay: Inhibition of CYP2D6 in human liver microsomes incubated for 20 mins in presence of NADPH by LC/MS/MS analysis; type: ADME, Microsome
Cytochrome P450 2D6, sequence (P10635 whole entry): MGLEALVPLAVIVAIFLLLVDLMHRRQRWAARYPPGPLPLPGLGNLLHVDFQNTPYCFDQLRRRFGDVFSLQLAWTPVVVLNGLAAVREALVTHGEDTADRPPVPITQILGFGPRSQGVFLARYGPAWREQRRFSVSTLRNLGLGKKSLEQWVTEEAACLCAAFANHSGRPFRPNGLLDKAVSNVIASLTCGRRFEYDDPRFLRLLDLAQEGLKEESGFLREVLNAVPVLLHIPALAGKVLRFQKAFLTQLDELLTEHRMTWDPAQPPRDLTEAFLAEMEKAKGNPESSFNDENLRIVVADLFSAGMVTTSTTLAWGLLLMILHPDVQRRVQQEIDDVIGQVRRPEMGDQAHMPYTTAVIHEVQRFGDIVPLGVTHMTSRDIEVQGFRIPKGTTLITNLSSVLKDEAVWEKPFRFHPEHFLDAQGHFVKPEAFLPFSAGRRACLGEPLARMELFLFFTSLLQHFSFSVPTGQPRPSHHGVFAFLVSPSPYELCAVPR

[36] = Acute toxicity in BALB/c mouse assessed as kidney damage at 40 to 68 mg/kg, ip measured on day 14 by H and E staining based analysis; type: organism-based; conditions: in vivo, 336 h, dose 40-68 mg/kg, time 14 day
[37] = tested on: HCT-116; assay: Induction of mitochondrial dysfunction in human HCT-116 cells assessed as attenuation of ATP coupling oxygen consumption rate incubated for 24 hrs by Seahorse XFe24 analyzer; type: functional, cell-based; conditions: dose 2-10 nM

Cc1cc(C(=O)Nc2ccc(OC(F)(F)F)cc2)nn1Cc1cccc(N2CCN(C(=O)C3CC3)CC2)c1
Non-Toxic: Activity [1] | Activity [2] | Activity [7] | Activity [8] | Activity [9] | Activity [10] | Activity [11] | Activity [13] | Activity [14] | Activity [15] | Activity [16] | Activity [17] | Activity [18] | Activity [19] | Activity [22] | Activity [24] | Activity [26] | Activity [27] | Activity [28] | Activity [29] | Activity [30] | Activity [32] | Activity [33] | Activity [36]
5.74 ×10⁻⁶ cm/s: Papp A→B at 2 h [12]
< 6.00: pIC50 [21]
5.16: pIC50 [5]
8.24: pIC50 [4]
active: Activity [3] | Activity [20] Dose-Dependent Effect | Activity [23] Dose-Dependent Effect | Activity [31] | Activity [37] Dose-Dependent Effect
5.74: pIC50 [6]
< 5.00: pIC50 [35]
33.3%: mortality at 336 h [34]
48.6%: inhibition [25]

Cc1cc(C(=O)Nc2ccc(C(F)(F)F)cc2)nn1Cc1cccc(N2CCN(C(=O)C3CC3)CC2)c1
Non-Toxic: Activity [1] | Activity [2] | Activity [7] | Activity [8] | Activity [9] | Activity [10] | Activity [11] | Activity [13] | Activity [14] | Activity [15] | Activity [16] | Activity [17] | Activity [18] | Activity [19] | Activity [22] | Activity [24] | Activity [26] | Activity [27] | Activity [28] | Activity [29] | Activity [30] | Activity [32] | Activity [33] | Activity [36]
5.13: pIC50 [5]
33.3%: mortality at 336 h [34]
5.83 ×10⁻⁶ cm/s: Papp A→B at 2 h [12]
8.41: pIC50 [4]
< 6.00: pIC50 [21]
active: Activity [3] | Activity [20] Dose-Dependent Effect | Activity [23] Dose-Dependent Effect | Activity [31] | Activity [37] Dose-Dependent Effect
< 5.00: pIC50 [35]
6.00: pIC50 [6]
55.4%: inhibition [25]
